Tests used:
[1] = test system: SKOV3-TRip2 and SKOV3-ip1 cells; experiment: Cell uptake of radiotracer, drug-resistant vs drug-sensitive SKOV3 cells; format: cell-based, human
Description: For cell uptake studies SKOV3-ip1 and SKOV3-TRip2, A549-WT, A549-KO-ALDH1A1, HEK293-WT and HEK293-ALDH1A1 cells were plated in 6 well plates 24 h prior to the studies, as described above (Western Blotting). One mL of fresh media containing 0.37 MBq of PQM-H-001 and 6 KBq PQM-H-002 was added to each well for the desired incubation time. At 40 min, plates were placed on ice, washed three times with ice-cold PBS to remove exogenous radioactivity and lysed in RIPA buffer ([…]; Fisher Scientific Ltd).
For all cell uptake and efflux study decay-corrected radioactivity in lysates was determined on a gamma counter ([…]; Wallac 1282 CompuGamma counter), with the remaining cell lysate centrifuged (21,000×g for 10 min at 4° C.) and the supernatant used to determine protein concentration following radioactive decay using a Pierce BCA assay. To quantify radiotracer uptake in cells, three standard solutions of the radioactivity-containing medium were counted on the gamma counter. Data were expressed as a percentage of total radioactivity administered to cells per mg of protein.
Next, the time-dependent uptake of the of the radiotracers PQM-H-001 ([^18F]PQM-H-001) and PQM-H-002 ([^125I]PQM-H-002) was profiled in drug-resistant SKOV3-Trip2 and drug-sensitive SKOV3-ip1 cell lines (Pereira, R., et al. 2019).

[2] = test system: SKOV3-TRip2 and SKOV3-ip1 subcutaneous tumours; experiment: In vivo tumour model and PET imaging; parameters: species or system Balb/c nu/nu mice
Description: All animal experiments were performed in accordance with the United Kingdom Home Office Animal (scientific procedures) Act […]. […] SKOV3-ip1 and 4×10^6 and SKOV3-TRip2 cells were injected subcutaneously into female Balb/c nu/nu mice aged 6-9 weeks (Charles River Laboratories). Tumour dimensions were measured using an electronic calliper and the volume calculated using the following equation: volume=((π/6)×h×w×l), where h, w and l represent, height, width, and length, respectively. Imaging studies took place when tumour size reached approximately 150-250 mm^3. Mice were anaesthetized with isoflurane (2.5% in oxygen) and maintained at 37° C. using an air-heated scanning bed. A tail vein cannula was inserted and a 3.7 MBq bolus of PQM-H-001 was administered in approximately 100 μL of PBS. Immediately following injection, 120 min PET acquisition was performed on a Mediso nanoScan PET/CT system. […] Reconstructed images (Tera-Tomo 3D reconstruction algorithm; 4 iterations; 6 subsets; 400-600 keV; 0.4 mm voxel size) were analysed using VivoQuant software (v. 2.5, Invicro Ltd.). Regions of interest (ROIs) were drawn manually on the CT images and the radioactivity concentration in each ROI expressed as a percentage of the injected dose per mL of tissue volume (% ID/mL).

[3] = Ex vivo biodistribution; format: in vivo, BALB/c-nu/nu mice; conditions: 90 min post radiotracer injection
Description: PQM-H-001 distribution was further evaluated ex vivo 90 min post radiotracer injection. […] Ex-vivo distribution of PQM-H-001 was performed after PET imaging (section: In Vivo Tumour Model and PET Imaging) by sacrificing all mice at time point 120 min post injection. Blood, tumour, and major organs and tissues were collected, wet-weighed, and counted using an automated y-counter (Wallac 1282 CompuGamma g counter). The concentrations of radioactivity in blood, tumor, and organs and tissues were determined as percentage injected of total radioactivity per gram (% ID/g).

[4] = test system: SKOV3-ip1 cells; experiment: Cisplatin-induced growth inhibition, MTT assay, SKOV3-ip1; format: cell-based, human; conditions: MTT assay 72 h post treatment; second value of 'respectively' pair (SKOV3-ip1 as printed)
Description: FIG. 1a: Graph showing cisplatin-induced growth inhibition in SKOV3-ip1 cells (white circles) and SKOV3-TRip2 cells (filled squares) using an MTT assay 72 h post treatment (n=3-5).
The SKOV3-TRip2 cell line was generated through progressive exposure to paclitaxel (Duan et al., 1999) whereas the SKOV3-ip1 cell line remained untreated.

Compound | Radiotracer retention, drug resistant versus drug-sensitive cells [1] [times higher] | Retention in treatment resistant SKOV3-TRip2 tumours compared to SKOV3-ip1 tumours ([2]; PET, subcutaneous tumours, 3.7 MBq i.v. bolus) [×] | identification of drug resistant tumours in vivo (in words) ([2]; PET/CT imaging) | radiotracer retention in drug-resistant vs drug-sensitive tumours (in words) [3] | radiotracer retention in healthy tissues (in words) [3] | route of excretion (in words) [3] | EC50 [4] [nM]
CS(=O)(=O)N1CCN(C(=O)c2cnc3ccc([18F])cc3c2-c2ccc(C3(C#N)CC3)cc2)CC1 [PQM-H-001, 1-(4-(6-(fluoro-^18F)-3-(4-(methylsulfonyl)piperazine-1-carbonyl)quinolin-4-yl)phenyl)cyclopropane-1-carbonitrile] | 9 | > 5 | can non-invasively identify drug resistant tumours in vivo | substantially increased in the drug-resistant tumours compared to drug-sensitive tumours | Low radiotracer retention was observed in most healthy tissues, except the liver | excretion occurring via the urinary and hepatobiliary tract | –
N.N.[Cl][Pt][Cl] [cisplatin] | – | – | – | – | – | – | 2600
